Results taken from US20190022225A1, “PROTOCOL FOR INCREASING LIFE EXPECTANCY IN A TEST SUBJECT” (Mayo Foundation for Medical Education and Research, priority 2015, published 2019).

Key:
[1] = system: non-senescent foreskin fibroblasts (HCA2), lung fibroblasts (IMR90), mouse embryonic fibroblasts (MEF); assay: Nutlin-3a toxicity, cell counts of non-senescent fibroblasts; assay type: cell-based, human; mouse; conditions: 0, 2.5, 10 μM, 9 days
Description: Non-senescent foreskin fibroblasts (HCA2), lung fibroblasts (IMR90), and mouse embryonic fibroblasts (MEF) were treated with varying concentrations (0, 2.5 μM, and 10 μM) of Nutlin-3a for a period of 9 days to assess Nutlin-3a toxicity. Cell counts were taken at the start (NS start) and end of Nutlin-3a treatment. The difference between counts of cells not treated with Nutlin-3a on day 9 (NS 0) and cell counts determined at day zero (NS start) reflects the cell growth over the indicated time period. […] Decrease in apparent survival between NS 0 and NS 2.5 and between NS 0 and NS 10 reflects a decrease in cell growth. Without wishing to be bound by theory, Nutlin-3a may stabilize p53, leading to cell cycle growth arrest.

[2] = system: non-senescent aortic endothelial (Endo Aort) cells and pre-adipocytes (Pread); assay: Nutlin-3a toxicity, cell counts of non-senescent endothelial cells and pre-adipocytes; assay type: cell-based; conditions: 0, 2.5, 10 μM, 11 days
Description: Non-senescent aortic endothelial (Endo Aort) cells and pre-adipocytes (Pread) were also treated with varying concentrations (0, 2.5 μM, and 10 μM) of Nutlin-3a for a period of 11 days to assess Nutlin-3a toxicity, as described above. Cell counts were taken at the start at Day 0 (NS start) and at the end of Nutlin-3a treatment (NS 0). The difference between counts of cells not treated with Nutlin-3a on day 11 (NS 0) and cell counts from NS start reflects the cell growth over the indicated time period. […] Decrease in apparent survival between NS 0 and NS 2.5 and between NS 0 and NS 10 reflects a decrease in cell growth.

[3] = system: doxorubicin-induced senescent cells in p16-3MR mice; assay: Nutlin-3a treatment of p16-3MR transgenic mice with doxorubicin-induced senescence; assay type: in vivo, mouse; conditions: for cells with DNA damage (γH2AX positive) in lung sections: day 35, versus doxorubicin alone
Description: The capability of Nutlin-3a to remove senescent cells in vivo was determined in transgenic p16-3MR mice (see, e.g., International Application Publication No. WO2013/090645). The transgenic mouse comprises a p16^Ink4a promoter operatively linked to a trimodal fusion protein for detecting senescent cells and for selective clearance of senescent cells in these transgenic mice, which is illustrated in FIG. 7. The promoter, p16^Ink4a, which is transcriptionally active in senescent cells but not in non-senescent cells (see, e.g., Wang et al., J. Biol. Chem. 276:48655-61 (2001); Baker et al., Nature 479:232-36 (2011)) was engineered into a nucleic acid construct. 3MR (tri-modality reporter) is a fusion protein containing functional domains of a synthetic Renilla luciferase (LUC), monomeric red fluorescence protein (mRFP), and truncated herpes simplex virus (HSV)-1 thymidine kinase (tTK), which allows killing by ganciclovir (GCV) (see, e.g., Ray et al., Cancer Res. 64:1323-30 (2004))). The 3MR cDNA was inserted in frame with p16 in exon 2, creating a fusion protein containing the first 62 amino acids of p16, but not a full-length wild-type p16 protein. […] The p16^Ink4a gene promoter (approximately […]) was introduced upstream of a nucleotide sequence encoding a trimodal reporter fusion protein. Alternatively, a truncated p16^Ink4a promoter may be used (see, e.g., Baker et al., Nature, supra; International Application Publication No. WO2012/177927; Wang et al., supra).). Thus, the expression of 3MR is driven by the p16^Ink4a promoter in senescent cells only. The detectable markers, LUC and mRFP permitted detection of senescent cells by bioluminescence and fluorescence, respectively. The expression of tTK permitted selective killing of senescent cells by exposure to the pro-drug ganciclovir (GCV), which is converted to a cytotoxic moiety by tTK. Transgenic founder animals, which have a C57B16 background, were established and bred using known procedures for introducing transgenes into animals (see, e.g., Baker et al., Nature 479:232-36 (2011)). Female C57/BL6 p16-3MR mice were randomized into doxorubicin+Nutlin-3a treated or doxorubicin only treated groups (see FIG. 6). Senescence was induced by intraperitoneal administration of doxorubicin at 10 mg/kg to the mice ten days prior to administration of Nutlin-3a (Day −10). Nutlin-3a (25 mg/kg) was administered intraperitoneally daily from day 10 to day 24 post-doxorubicin treatment (Group=9 mice). Control mice (doxorubicin treated) were injected with equal volumes of PBS (Group=3 mice). Luminescence imaging (Xenogen Imaging system) was performed at Day 0 (i.e., 10 days post-doxorubicin treatment) as a baseline for each mouse (100% intensity).
Luminescence imaging of the mice was performed on day 7, 14, 21, 28, and 35 following the initiation of Nutlin-3a treatment. Reduction of luminescence (L) was calculated as: L=(Imaging post-Nutlin-3a treatment)/(Baseline Imaging) %. If L is greater than or equal to 100%, the number of senescent cells was not reduced. If L is less than 100%, then the number of senescent cells was reduced. Every mouse was calculated independently, and background was subtracted from each sample.
Experiments were performed to determine the effect of Nutlin-3a treatment on expression of genes associated with senescence. Groups of female C57/BL6 p16-3MR were treated as described above. Three weeks after the end of Nutlin-3a treatment (day 35), the doxorubicin treated mice (control) (N=3) and doxorubicin+Nutlin-3a-treated mice (N=6) were sacrificed. Skin and fat biopsies were collected for RNA extraction; fat biopsies were collected for detection of senescence-associated β-galactosidase; and lungs were flash frozen in cryoprotectant OCT media for cryostat sectioning. […]

In the case of COc1ccc(C2=N[C@@H](c3ccc(Cl)cc3)[C@@H](c3ccc(Cl)cc3)N2C(=O)N2CCNC(=O)C2)c(OC(C)C)c1 [Nutlin-3a], the “toxicity to non-senescent fibroblasts (percent growth)” value [1] is reported as “reduces proliferation but is non-toxic”, the “toxicity to non-senescent aortic endothelial cells and pre-adipocytes (percent growth)” value [2] is reported as “reduces proliferation but is non-toxic” and the “luminescence associated with doxorubicin-induced senescence” value ([3]; 25 mg/kg intraperitoneally daily, day 10 to 24 post-doxorubicin) is reported as “reduced luminescence”. For the same compound, the “luminescence, statistical significance at time points” value ([3]; day 14, day 28 and day 35 after start of treatment) was “statistically significant decrease”, the “mRNA of SASP factors (mmp-3, IL-6) and senescence markers (p21, p16, p53) in skin and fat” value ([3]; day 35, relative to actin mRNA) was “reduced expression” and the “cells with DNA damage (γH2AX positive) in lung sections” value [3] was “reduced the number of cells with doxorubicin-induced DNA damage”. For the same compound, the “cells with DNA damage (γH2AX positive) in lung sections” value ([3]; listed as nutlin-3A) was “reduced the number of cells with DNA damage” and the “senescence-associated β-gal intensity in fat biopsies” value ([3]; three weeks after treatment, versus doxorubicin alone) was “reduced senescence-associated (SA) β-galactosidase (β-gal) intensity”.
